Assay results reported in patent publication US10961187B2, “Substituted N-acetyl-L-cysteine derivatives and related compounds” (Promentis Pharmaceuticals, Inc., priority 2013, dated 2021).
One block for each compound: values may come before it.

Key:
[1] = system: mixed cortical cell cultures containing glial and neuronal cells; experiment: In vitro thiol experiment: intracellular cysteine levels; type: cell-based, mice; conditions: for intracellular cysteine concentration: raw concentration in collected samples
Method: To further resolve by what process the inhibition of ^14C-cystine uptake is occurring intracellular cysteine levels were determined.
Mixed cortical cell cultures containing glial and neuronal cells were prepared from fetal (15-16 day gestation) mice as previously described. (Lobner D, “Comparison of the LDH and MTT assays for quantifying cell death: validity for neuronal apoptosis?,” J. Neurosci. Methods, 96(2): 147-152 (Mar. 15, 2000)). Dissociated cortical cells were plated on 24-well plates coated with poly-D-lysine and laminin in Eagles' Minimal Essential Medium (MEM, Earle's salts, supplied glutamine-free) supplemented with 5% heat-inactivated horse serum, 5% fetal bovine serum, 2 mM glutamine and glucose (total 21 mM). Cultures were maintained in humidified 5% CO2 incubators at 37° C. Mice were handled in accordance with a protocol approved by our institutional animal care committee and in compliance with the Public Health service Policy on Humane Care and Use of Laboratory Animals.
Mixed cortical cell cultures, 14 days in vitro (this allows for a confluent layer of astrocytes to form and the neurons to generate a complex network of axons and dendrites), were washed into bicarbonate buffered salt solution. After 1 hour, 3, 10, 30, 100 μM of Pro-4047 or Pro-4051 was added and the cells were incubated for 30 or 90 minutes, after which the cells were thoroughly washed and the collected in 250 μL of aqueous mobile phase (50 mM citric acid, 10 mM octanesulfonic acid, pH 2.8) was added, after 10 minutes at 37° C. the cells were scraped from the plates and transferred to 1.5 mL tubes for analysis.
Samples were then sonicated with a Fisher Scientific 60 Sonic Dismembrator. One fraction of this homogenate was analyzed with the Pierce BCA (bicinchoninic acid) method to determine protein concentration. The other fraction was filtered using 3 K molecular weight cutoff, polyethersulfone centrifugal protein filters, and analyzed for thiol content using HPLC (ALF-115 column, 150×1.0 mm, 3 μm C18 [Pro-2023 analysis utilized a Phenomenex Kinetex 2.6 μM, C18, 100 A, 150×2.1 mm and Pro-4047 analysis utilized a Phenomenex Kinetex X-B, C18, 100 A, 2.6 μm, 150×4.4 mm]; mobile phase: 50 mM citric acid, 10 mM octanesulfonic acid, 2% acetonitrile, pH 2.8, 50 μL/min flow rate [Pro-2023 analysis utilized a 100 μL/min flow rate and Pro-4047 analysis utilized 1% acetonitrile and 0.4 mL/min flow rate] with electrochemical detection (Decade II, Au working electrode, Flex Cell HyREF, 0.55V, Antec Leyden, Netherlands [Pro-4047 analysis utilized a Magic Diamond working electrode and 1.8V]).
When the intracellular thiol assay was initiated, all data was normalized to protein concentration. […] The data presented herein represents the raw cysteine concentrations in the collected samples. […] Pro-4006 at 10 μM increases intracellular cysteine concentration to 0.07 μM at 30 minutes (approximately 3.5 times that of the control; FIG. 11). […] Pro-4047 at 300 μM increases intracellular cysteine concentration to 0.74 μM at 90 minutes (approximately 4.9 times that of the control; FIG. 13). […] Thus, based on the 3 in vitro experiments it is apparent that Pro-2023, Pro-4006, Pro-4011, Pro-4047, Pro-4051 and Pro-4051a behave as effective cysteine prodrugs.

[2] = target: T1, System xc− (Homo sapiens, UniProt Q9UPY5); experiment: 14C-cystine uptake in human glial cells from brain astrocytoma (1321N1); type: cell-based; conditions: 1321N1 cells
T1 construct: in vitro culture system of human glial cells from brain astrocytoma (1321N1); endogenous in cells; host or cells: 1321N1 human astrocytoma cells
T1 sequence (Q9UPY5 1-501): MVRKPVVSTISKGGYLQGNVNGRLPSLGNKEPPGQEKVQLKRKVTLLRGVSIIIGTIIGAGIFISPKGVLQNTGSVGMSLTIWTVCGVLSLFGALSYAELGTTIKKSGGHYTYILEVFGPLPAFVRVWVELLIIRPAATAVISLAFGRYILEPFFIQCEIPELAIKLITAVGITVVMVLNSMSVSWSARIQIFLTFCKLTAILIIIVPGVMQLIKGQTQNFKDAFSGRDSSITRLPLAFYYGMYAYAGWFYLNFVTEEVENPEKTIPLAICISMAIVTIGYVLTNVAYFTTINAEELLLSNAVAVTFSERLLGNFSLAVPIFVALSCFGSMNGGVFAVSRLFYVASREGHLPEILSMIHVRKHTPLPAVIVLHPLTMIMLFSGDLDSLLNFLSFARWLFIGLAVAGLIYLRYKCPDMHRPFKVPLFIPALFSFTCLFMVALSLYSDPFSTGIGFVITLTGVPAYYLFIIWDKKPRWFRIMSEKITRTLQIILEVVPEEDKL
T1 sequence (P08195 1-529 partner): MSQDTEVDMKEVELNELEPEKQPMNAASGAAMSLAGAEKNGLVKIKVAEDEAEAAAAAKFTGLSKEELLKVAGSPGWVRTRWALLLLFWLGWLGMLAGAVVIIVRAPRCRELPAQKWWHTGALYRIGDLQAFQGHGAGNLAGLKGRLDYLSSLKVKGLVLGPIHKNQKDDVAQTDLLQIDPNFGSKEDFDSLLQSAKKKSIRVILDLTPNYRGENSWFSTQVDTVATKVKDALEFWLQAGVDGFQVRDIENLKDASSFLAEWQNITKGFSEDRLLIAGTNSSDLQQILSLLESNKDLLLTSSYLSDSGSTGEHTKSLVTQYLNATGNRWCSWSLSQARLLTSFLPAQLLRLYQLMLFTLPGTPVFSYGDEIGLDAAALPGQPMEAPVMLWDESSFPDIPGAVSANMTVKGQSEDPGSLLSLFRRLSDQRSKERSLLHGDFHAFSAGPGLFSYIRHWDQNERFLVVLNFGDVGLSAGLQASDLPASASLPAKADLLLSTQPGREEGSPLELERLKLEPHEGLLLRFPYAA
Method: The goal of these experiments was to determine ^14C-cystine uptake.
The screening of compounds was performed using an in vitro culture system of human glial cells from brain astrocytoma (1321N1). Cells were plated on 24 well plates coated with poly-D-lysine and laminin and grown in a balanced salt solution supplemented with 5% heat inactivated horse serum, 5% fetal bovine serum, 2 mM glutamine and glucose (total 21 mM). Cultures were maintained in humidified 5% CO2 incubators at 37° C. for 3-4 days before experiments were performed, at this time the cultures has formed a single confluent layer. For experiments, cultures were washed 3 times into a Na-free HEPES and HCO3^− buffered balanced salt solution. After 1 hour, the test compounds are added. Following a three hour incubation, ^14C-cystine (0.025 mCi/mL) was then added for 20 minutes. Following the ^14C-cystine exposure, cultures were washed 3 times with ice cold HEPES buffered saline solution and dissolved in 250 μl sodium dodecyl sulfate (0.1%). An aliquot (200 μl) was removed and added to scintillation fluid for counting. Values were normalized to ^14C-cystine uptake in untreated controls on the same experimental plate.

decrease in 14C-cystine uptake ([2]; 100 μM (most effective concentration), average of three experiments): approximately 28%
SMILES: CCOC(=O)[C@H](CSC(=O)c1ccc(C)cc1)NC(C)=O [Pro-4051, Ethyl (2R)-2-acetamido-3-(4-methylbenzoylsulfanyl)propanoate]
intracellular cysteine, times that of the control ([1]; 100 μM compound, 90 minutes): approximately 4 times | intracellular cysteine concentration ([1]; 100 μM compound, 90 minutes): 0.36 µM

decrease in 14C-cystine uptake ([2]; over the concentrations tested, dose-dependent): 20-60%
SMILES: CCOC(=O)[C@H](CSC(=O)C1CSC(=O)N1)NC(C)=O (stereo partly drawn) [Pro-4047, Ethyl (2R)-2-acetamido-3-(2-oxo-1,3-thiazolidine-4-carbonylsulfanyl) propanoate]
intracellular cysteine, times that of the control ([1]; 300 μM compound, 90 minutes): approximately 4.9 times | intracellular cysteine concentration ([1]; 300 μM compound, 90 minutes): 0.74 µM

inhibition at 1000 µM ([2]; 1000 μM, three hour incubation, read-out: decrease (inhibition) in 14C-cystine uptake): ~45%
SMILES: CC(=O)N[C@@H](CSC(=O)c1ccc(C)cc1)C(=O)O [Pro-2023, (2R)-2-Acetylamino-3-(4-methyl-benzoylsulfanyl)-propionic acid]
intracellular cysteine, times that of the control ([1]; 100 μM compound, 30 minutes): approximately 1.6 times | intracellular cysteine concentration ([1]; 100 μM compound, 30 minutes): 0.16 µM
